Tests used:
MRL/lpr mice = assay: Anti-dsDNA antibody titer in blood of MRL/lpr mice (Example 6); type: in vivo
Text: MRL/lpr mice (purchased from Charles River Laboratories Japan, Inc.) were used as disease model (may also be referred to as collagen disease model or systemic lupus erythematosus (SLE) model) mice developing inflammatory diseases at a high rate and developing multiple autoimmune phenomena. Approximately 80% or more of the MRL/lpr mice develop systemic vasculitis around four to five months old. In addition, it is also known that the same individual spontaneously develops, not only vasculitis, but also glomerulonephritis, arthritis, sialadenitis, and the like (J. Jpn. Coll. Angiol., 2009, 49 11-16.).
Experiments were performed as follows: • Group 1: administered a physiological saline solution only (saline); • Group 2: administered 0.04 mg/kg of Compound A; • Group 3: administered 0.2 mg/kg of Compound A; • Group 4: administered 1 mg/kg of Compound A. […]
The blood was collected over time (0 w, 4 w, 8 w, 12 w, and 16 w) measure the anti-dsDNA antibody titers in the blood. The anti-dsDNA antibody is a kind of antinuclear antibody and is known to be frequently and specifically detected in the serum of SLE patients.
The anti-dsDNA antibody titers in the blood were measured with “LBIS™ anti-dsDNA mice ELISA KIT” (AKRDO-061, produced by Fujifilm Corp.). […]

NZB/WF1 mice = assay: Anti-dsDNA antibody titer in blood of NZB/WF1 mice (Example 7); type: in vivo
Procedure: NZB/WF1 mice (purchased from Japan SLC, Inc.) were used as disease model (may also be referred to as systemic lupus erythematosus (SLE) model) mice producing anti-dsDNA antibodies with age and spontaneously developing glomerulonephritis. Except for the following exceptions, present Example was performed by the same materials and method as Example 6 above.
Experiments were performed as follows: • Group 1: administered a physiological saline solution only (saline); • Group 2: administered 0.2 mg/kg of Compound A; • Group 3: administered 1 mg/kg of Compound A.
NZB/WF1 mice (female) of 20 weeks old were classified into the above three groups (five individuals per group) and predetermined administration was initiated (0 w) on the individuals in each group.
The administration was performed five times a week for 20 weeks by intravenous injection.

[1] = test system: human monocytic cell line THP-1; assay: IL-6 production inhibitory effect of BAFF in IFNγ-precultured THP-1 cells (Example 2); type: cell-based
Procedure: In 24-well plates (manufactured by Corning Inc.) in a RPMI-1640 culture medium (produced by ATCC) containing 10% fetal bovine serum (produced by JRH Biosciences), 5×10^5 cells of human monocytic leukemia cell line THP-1 (obtained from a bioresource bank, Japanese Collection of Research Bioresource) were seeded per well. IFNγ (interferon γ, produced by BD Pharmingen) was added to a final concentration of 200 ng/mL and cultured in a 5% CO2 environment at 37° C. After four days of culture, the culture broth in each well was removed and the cells were washed twice with the culture medium, followed by addition of the culture medium containing a final concentration of 2 μg/mL of recombinant human soluble BAFF (produced by Chemicon), and respective test compounds were added to a final concentration of 20 μM or 2 μM to continue the culture in the same conditions. After three days of culture, the culture supernatant was collected to determine the IL-6 content in the supernatant by ELISA. For ELISA, mouse anti-human IL-6 antibody (produced by BD Pharmingen), biotin-labeled anti-human IL-6 antibody (produced by BD Pharmingen), and HRP-labeled streptavidin (produced by BD Pharmingen) were used. The test compound groups were used by purchasing from Asinex. In the test system, Compound 27 (BIK-13) in PTL 1 was used as a positive control (compound with inhibitory action on IL-6 production by monocytic cells). BIK-13 was the same as the compound of ADM 12880656 by Asinex Japan Inc.
In the presence of 200 ng/mL recombinant human IFNγ (same as Example 1) (entire culture scale of 24-well culture plates at 2 mL/well), 5×10^5 cells of human monocytic cell line THP-1 (same as Example 1) were cultured using a 10% FBS/RPMI 1640 culture medium in a 5% CO2 environment at 37° C. for four days (96 hours). Four days later, an operation of removing the supernatant, adding a new medium, leaving it still in an incubator, and removing the supernatant was repeated twice. After removing the supernatant, recombinant human BAFF (2 μg/mL) was dissolved together with Compound A (ADM 12880492, Asinex Japan Inc.) or Compound B (ADM 12880696, Asinex Japan Inc.) in a medium and added to the culture wells to be cultured for three days. Three days later, the culture supernatant was collected to determine the IL-6 content in the culture supernatant by IL-6 specific ELISA. As a control, instead of Compound A or Compound B, BIK-13 was used.

**Q.** What does the source list for `Cc1c(C)n(Cc2ccccc2)c2ncnc(OC3CCN(CC(=O)NCC4CC4)CC3)c12` [Compound A, 2-[4-{(7-benzyl-5,6-dimethyl-7H-pyrrolo[2,3-d]pyrimidin-4-yl)oxy}piperidin-1-yl]-N(cyclopropylmethyl)acetamide]?
**A.** anti-dsDNA antibody titer inhibitory effect compared with saline (MRL/lpr mice; 0.2 mg/kg and 1 mg/kg, 16th week): significant (respectively, p<0.05) anti-dsDNA antibody titer inhibitory effects; anti-dsDNA antibody titers in the blood compared with saline (MRL/lpr mice; 0.04, 0.2 and 1 mg/kg, intravenous injection five times a week, 8 w or later): tendency of decrease; anti-dsDNA antibody titer inhibitory effect compared with saline (NZB/WF1 mice; 1 mg/kg, 12th and 16th weeks): significant (respectively, p<0.05) anti-dsDNA antibody titer inhibitory effects; anti-dsDNA antibody titers in the blood compared with saline (NZB/WF1 mice; 0.2 and 1 mg/kg, intravenous injection five times a week, 12 w or later): tendency of decrease; IL-6 production inhibitory effect compared with the control ([1]; 0.04 μM, 0.2 μM and 1 μM together with 2 μg/mL human BAFF, 3 days, ELISA): significant (p<0.001) IL-6 production inhibitory effects; relative amount of IL-6 production ([1]; 0.04 μM, control (BAFF only) = 100%): 25±1.42%; IL-6 production inhibitory effect, times stronger than BIK-13 ([1]; THP-1 system of Example 2): at least 750 times

— patent US12115161B2, “Prophylactic and/or therapeutic agent for inflammatory diseases which contains pyrrolopyrimidine compound as active ingredient” (KEIO UNIVERSITY, priority 2018, dated 2024)
